Drawing on patent US12257247B2 (Monte Rosa Therapeutics AG, priority 2023, dated 2025), this text covers Dmax and DC50 for 10 compounds.

The target in this experiment is T1, VAV1 (Homo sapiens, UniProt P15498+Q96SW2).
T1 construct: A heterozygous VAV1 C-terminal HiBiT knock-in pool was generated at Monte Rosa Therapeutics from a clonal Jurkat cell; endogenous in cells; host or cells: Jurkat clone stably expressing LgBiT, homozygous GSPT1-G575N; heterozygous VAV1-HiBiT knock-in pool
The experiment in a line: VAV1 degradation activity, VAV1-HiBiT knock-in Jurkat luminescence assay (Example A, Table 1). It is filed as cell-based. The conditions noted are these: VAV1-HiBiT knock-in Jurkat cells, luminescence read at 6 and 24 hours; for Dmax: Jurkat. The method in brief:
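Luminescence was measured at 6 and 24 h after adding compound (10 μM stock) to VAV1-HiBiT knock-in Jurkat cells, which had been pre-incubated ~16 h at 37° C. in RPMI/10% FBS containing Endurazine. EC50 values came from control-normalised responses fitted to a 3-parameter logistic model with hillslope fixed at 1.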

[1] abbreviates: read-out: VAV1 DC50 (nM), class.

Where two headings read alike, the source gives them in different places. Bounds are passed on as bounds.

Turning to `O=C1CCC(c2cccc(-c3ccc(N4CCN(CC(F)F)CC4=O)cc3)c2Cl)C(=O)N1` (stereo not shown) [Compound 446, 3-(2-chloro-4′-(4-(2,2-difluoroethyl)-2-oxopiperazin-1-yl)-[1,1′-biphenyl]-3-yl)piperidine-2,6-dione], the Dmax (read-out: VAV1 Dmax %) is 95.2% and the Dmax (read-out: VAV1 Dmax %, class) is above 90%. Further, the DC50 by setting is: (read-out: VAV1 DC50) 9.83 nM; under setting [1], at most 100 nM.
As for `O=C1CCC(c2cccc(-c3ccc(C(=O)N4CCCCC4)cc3)c2Cl)C(=O)N1` (stereo not shown) [Compound 223, 3-(2-chloro-4′-(piperidine-1-carbonyl)-[1,1′-biphenyl]-3-yl)piperidine-2,6-dione], the Dmax was 96.6% (read-out: VAV1 Dmax %) and above 90% (read-out: VAV1 Dmax %, class). Besides, the DC50 runs as follows: (read-out: VAV1 DC50) 10.7 nM; under setting [1], at most 100 nM.
For the compound `O=C1CCC(c2cccc(-c3ccc(N4C(=O)OCCC45CC5)nc3)c2Cl)C(=O)N1` (stereo not shown) [Compound 351, 3-(2-chloro-3-(6-(5-oxo-6-oxa-4-azaspiro[2.5]octan-4-yl)pyridin-3-yl)phenyl)piperidine-2,6-dione], the Dmax reads like this: (read-out: VAV1 Dmax %) 87%; (read-out: VAV1 Dmax %, class) 60 to 90%. Further, the DC50 is, setting by setting: (read-out: VAV1 DC50) 82.5 nM; under setting [1], at most 100 nM.
The corresponding values for `O=C1CCC(c2cccc(-c3ccc(N4C(=O)CCC45CCC5)nc3)c2Cl)C(=O)N1` (stereo not shown) [Compound 394, 3-(2-chloro-3-(6-(6-oxo-5-azaspiro[3.4]octan-5-yl)pyridin-3-yl)phenyl)piperidine-2,6-dione] are 88.7%, 60 to 90%, 36.2 nM and at most 100 nM.
The corresponding values for `O=C1CC[C@@](F)(c2cccc(-c3ccc(N4CCCCC4=O)cc3)c2Cl)C(=O)N1` (single isomer, unassigned) [Compound 368] are 98.5%, above 90%, 1.84 nM and at most 100 nM.
The corresponding values for `CN1CC(=O)N(c2ccc(-c3cccc(C4CCC(=O)NC4=O)c3Cl)cc2)CC1(C)C` (stereo not shown) [Compound 317] are 93.2%, above 90%, 13.6 nM and at most 100 nM.
On to `O=C1CCC(c2cccc(-c3ccc(C4(N5CCCCC5=O)CC4)cc3)c2Cl)C(=O)N1` (stereo not shown) [Compound 337, 3-[2-chloro-3-[4-[1-(2-oxo-1-piperidyl)cyclopropyl]phenyl]phenyl]piperidine-2,6-dione], for which the Dmax was 40% (read-out: VAV1 Dmax %) and below 60% (read-out: VAV1 Dmax %, class). For the same compound, the DC50 (read-out: VAV1 DC50) amounted to 5770 nM and the DC50 under setting [1] is above 1000 nM.
The corresponding values for `O=C1CCC(c2cccc(-c3ccc(-n4cc(C(F)(F)F)ccc4=O)cc3)c2Cl)C(=O)N1` (stereo not shown) [Compound 237, 3-(2-chloro-4′-(2-oxo-5-(trifluoromethyl)pyridin-1(2H)-yl)-[1,1′-biphenyl]-3-yl)piperidine-2,6-dione] are 92.7%, above 90%, 35.8 nM and at most 100 nM.
The corresponding values for `Cn1cnc(Cn2ncc3cc(-c4cccc(C5CCC(=O)NC5=O)c4Cl)ccc32)c1` (stereo not shown) [Compound 397, 3-(2-chloro-3-(1-((1-methyl-1H-imidazol-4-yl)methyl)-1H-indazol-5-yl)phenyl)piperidine-2,6-dione] are 99.1%, above 90%, 3.01 nM and at most 100 nM.
With `O=C1CCC(c2cccc(-c3ccc(N4C(=O)CCC45CC5)cc3)c2Cl)C(=O)N1` (stereo not shown) [Compound 414, 3-(2-chloro-4′-(5-oxo-4-azaspiro[2.4]heptan-4-yl)-[1,1′-biphenyl]-3-yl)piperidine-2,6-dione], the Dmax is, setting by setting: (read-out: VAV1 Dmax %) 97.7%; (read-out: VAV1 Dmax %, class) above 90%. Also, the DC50 (read-out: VAV1 DC50) stood at 5.85 nM and the DC50 under setting [1] was at most 100 nM.

In general, Dmax refers to the greatest extent of degradation seen. One may read the DC50 as the concentration giving 50% degradation.
